Among the data in patent US5965570A, “Tricyclic piperidinyl compounds useful as inhibitors of farnesyl-protein transferase” (Schering Corporation, priority 1997, dated 1999) are inhibition and IC50 values, retold here.

This test addresses T1, farnesyl protein transferase (FPT) (Rattus norvegicus, UniProt Q02293+Q04631).
T1 construct: partially purified rat brain farnesyl protein transferase (FPT); from tissue; host or cells: rat brain
The test is described as follows: FPT IC50 / FPT inhibition (inhibition of farnesyl protein transferase, in vitro enzyme assay). The note with it: for IC50: Ras-CVLS farnesylation by partially purified rat brain FPT. The test is classed as biochemical.

T1 sequence (Q02293 whole entry, one chain of several): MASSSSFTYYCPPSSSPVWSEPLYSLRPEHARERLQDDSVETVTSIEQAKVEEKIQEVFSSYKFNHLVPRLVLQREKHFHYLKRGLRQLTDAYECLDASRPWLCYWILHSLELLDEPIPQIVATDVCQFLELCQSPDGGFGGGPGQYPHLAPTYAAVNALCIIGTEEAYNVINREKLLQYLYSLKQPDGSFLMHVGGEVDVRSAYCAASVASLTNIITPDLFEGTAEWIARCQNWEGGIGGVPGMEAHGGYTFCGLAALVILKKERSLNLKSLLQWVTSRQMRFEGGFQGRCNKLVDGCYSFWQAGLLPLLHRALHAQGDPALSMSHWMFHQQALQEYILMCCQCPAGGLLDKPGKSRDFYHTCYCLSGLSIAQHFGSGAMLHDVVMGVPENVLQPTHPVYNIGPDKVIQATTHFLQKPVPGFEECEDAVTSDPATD

The compound `O=C(NCCc1ccccn1)C1CCN(C2c3ccc(Cl)cc3CCc3cc(Br)cnc32)CC1` (stereo not drawn) [Example 6, 1-(3-Bromo-8-chloro-6,11-dihydro-5H-benzo[5,6]cyclohepta[1,2-b]pyridin-11-yl)-N-(2-pyridinylethyl)-4-piperidinecarboxamide] gave an inhibition at 1.1 µM (@ 1.1 μM) of 9%.
On to `O=C(NCc1cccnc1)C1CCCN(C2c3ccc(Cl)cc3CCc3cc(Br)cnc32)C1` (stereo not drawn) [Example 10, 1-(3-Bromo-8-chloro-6,11-dihydro-5H-benzo[5,6]cyclohepta[1,2-b]pyridin-11-yl)-N-(3-pyridinylmethyl)-3-piperidinecarboxamide], for which the IC50 was 210 nM.
Still for that read-out and setting: as for `O=C(NCCCN1CCCC1=O)[C@@H]1CCCN(C2c3ncc(Br)cc3CCc3cc(Cl)cc(Br)c32)C1` (stereo partly drawn) [Example 54, 1-(3,10-Dibromo-8-chloro-6,11-dihydro-5H-benzo[5,6]cyclohepta[1,2-b]pyridin-11-yl)-N-[3-(2-oxo-1-pyrrolidinyl)propyl]-3-piperidinecarboxamide], the figure is 1000 nM.

One may read the inhibition as the drop in the measured response relative to a control, in per cent. Low readings indicate little suppression, high ones strong suppression. The term IC50 denotes the concentration that gives 50% inhibition. Read a high IC50 as weaker potency in that assay.
